Measurements: the NIST ThermoML archive (doi:10.1021/je700754k)

Columns and labels:
[1] = xn = mol fraction of the nth substance listed; settings: 101 kPa, Liquid
[2] = excess molar enthalpy (molar enthalpy of mixing); xn = mol fraction of the nth substance listed; settings: 303.15 K, 101 kPa, Liquid, Calvet calorimetry

C[N+](=O)[O-] [nitromethane] + CCCCn1cc[n+](C)c1.COS(=O)(=O)[O-]
[1], x2 = 0
Settings | mass density [kg/m3]
293.15 K | 1137.92
303.15 K | 1124.32
313.15 K | 1110.62
323.15 K | 1096.82

CCCCn1cc[n+](C)c1.F[B-](F)(F)F [1-butyl-3-methylimidazolium tetrafluoroborate] + C[N+](=O)[O-]
[1], x1 = 1
Settings | mass density [kg/m3]
293.15 K | 1204.99
303.15 K | 1197.89
313.15 K | 1190.81
323.15 K | 1183.78

CCCCn1cc[n+](C)c1.F[B-](F)(F)F [1-butyl-3-methylimidazolium tetrafluoroborate] + CCO
mass density [kg/m3], [1]
Settings | 293.15 K | 303.15 K | 313.15 K | 323.15 K
x1 = 0.0517 | 854.59 | 846.27 | 837.83 | 829.27
x1 = 0.0918 | 895.67 | 887.54 | 879.27 | 870.9
x1 = 0.1479 | 943.11 | 935.12 | 927.02 | 918.84
x1 = 0.1995 | 980.07 | 972.15 | 964.15 | 956.11
x1 = 0.2518 | 1011.33 | 1003.46 | 995.56 | 987.64
x1 = 0.3228 | 1046.79 | 1039.01 | 1031.22 | 1023.46
x1 = 0.4219 | 1085.81 | 1078.14 | 1070.51 | 1062.91
x1 = 0.5356 | 1120.88 | 1113.35 | 1105.88 | 1098.46
x1 = 0.6244 | 1142.66 | 1135.23 | 1127.86 | 1120.54
x1 = 0.709 | 1160.24 | 1152.89 | 1145.59 | 1138.37
x1 = 0.8295 | 1181.36 | 1174.12 | 1166.93 | 1159.8
x1 = 0.9327 | 1196.33 | 1189.16 | 1182.04 | 1174.97
x1 = 1 | 1204.93 | 1197.83 | 1190.74 | 1183.72

[2]
Settings | excess molar enthalpy [kcal/mol]
x1 = 0.0201 | 0.086
x1 = 0.0573 | 0.204
x1 = 0.1005 | 0.307
x1 = 0.1962 | 0.467
x1 = 0.3371 | 0.591
x1 = 0.4225 | 0.624
x1 = 0.5001 | 0.6
x1 = 0.5874 | 0.545
x1 = 0.6333 | 0.49
x1 = 0.7422 | 0.399
x1 = 0.8291 | 0.277
x1 = 0.9257 | 0.149

C[N+](=O)[O-] [nitromethane] + CCCCn1cc[n+](C)c1.F[B-](F)(F)F
mass density [kg/m3], [1]
Settings | 293.15 K | 303.15 K | 313.15 K | 323.15 K
x2 = 0 | 1137.98 | 1124.39 | 1110.68 | 1096.88
x2 = 0.0512 | 1154.27 | 1142.08 | 1129.84 | 1117.57
x2 = 0.0991 | 1164.29 | 1152.98 | 1141.66 | 1130.32
x2 = 0.1392 | 1170.56 | 1159.82 | 1149.08 | 1138.35
x2 = 0.2026 | 1178.15 | 1168.09 | 1158.06 | 1148.05
x2 = 0.2986 | 1186.08 | 1176.78 | 1167.52 | 1158.31
x2 = 0.3565 | 1189.62 | 1180.67 | 1171.76 | 1162.9
x2 = 0.3972 | 1191.64 | 1182.9 | 1174.2 | 1165.55
x2 = 0.4553 | 1194.13 | 1185.65 | 1177.21 | 1168.83
x2 = 0.5231 | 1196.42 | 1188.18 | 1179.99 | 1171.87
x2 = 0.5949 | 1198.48 | 1190.48 | 1182.53 | 1174.65
x2 = 0.6863 | 1200.57 | 1192.82 | 1185.11 | 1177.48
x2 = 0.8073 | 1202.6 | 1195.13 | 1187.69 | 1180.33
x2 = 0.8634 | 1203.37 | 1196.01 | 1188.69 | 1181.43

[2]
Settings | excess molar enthalpy [kcal/mol]
x2 = 0.0016 | -0.00167
x2 = 0.0273 | -0.022
x2 = 0.0558 | -0.0435
x2 = 0.1131 | -0.0686
x2 = 0.202 | -0.097
x2 = 0.3621 | -0.116
x2 = 0.5067 | -0.108
x2 = 0.6037 | -0.0978
x2 = 0.7226 | -0.0755
x2 = 0.8827 | -0.038

CCCCn1cc[n+](C)c1.COS(=O)(=O)[O-] [1-butyl-3-methylimidazolium methyl sulfate] + CCO
mass density [kg/m3], [1]
Settings | 293.15 K | 303.15 K | 313.15 K | 323.15 K
x1 = 0.0459 | 854.75 | 846.48 | 838.14 | 829.69
x1 = 0.0987 | 913.25 | 905.23 | 897.17 | 889.06
x1 = 0.142 | 952 | 944.14 | 936.26 | 928.36
x1 = 0.1905 | 988.2 | 980.49 | 972.79 | 965.08
x1 = 0.2357 | 1016.76 | 1009.19 | 1001.63 | 994.07
x1 = 0.2733 | 1037.27 | 1029.8 | 1022.32 | 1014.88
x1 = 0.3516 | 1073.29 | 1065.97 | 1058.67 | 1051.41
x1 = 0.4381 | 1104.9 | 1097.71 | 1090.57 | 1083.48
x1 = 0.5335 | 1132.61 | 1125.56 | 1118.55 | 1111.6
x1 = 0.5712 | 1141.96 | 1134.95 | 1127.99 | 1121.09
x1 = 0.6742 | 1163.83 | 1156.95 | 1150.1 | 1143.31
x1 = 0.7665 | 1180.16 | 1173.37 | 1166.61 | 1159.9
x1 = 0.8482 | 1192.27 | 1185.55 | 1178.85 | 1172.21
x1 = 0.9248 | 1202.35 | 1195.72 | 1189.08 | 1182.49
x1 = 1 | 1211.17 | 1204.48 | 1197.92 | 1191.39

[2]
Settings | excess molar enthalpy [kcal/mol]
x1 = 0.016 | 0.0504
x1 = 0.0338 | 0.088
x1 = 0.1032 | 0.206
x1 = 0.1897 | 0.277
x1 = 0.2821 | 0.316
x1 = 0.3379 | 0.305
x1 = 0.5068 | 0.256
x1 = 0.5946 | 0.229
x1 = 0.7119 | 0.166
x1 = 0.7889 | 0.122
x1 = 0.9083 | 0.0526

CCO [ethanol] + CCCCn1cc[n+](C)c1.COS(=O)(=O)[O-]
[1], x2 = 0
Settings | mass density [kg/m3]
293.15 K | 789.53
303.15 K | 780.94
313.15 K | 772.2
323.15 K | 763.28

CCCCn1cc[n+](C)c1.COS(=O)(=O)[O-] [1-butyl-3-methylimidazolium methyl sulfate] + C[N+](=O)[O-]
mass density [kg/m3], [1]
Settings | 293.15 K | 303.15 K | 313.15 K | 323.15 K
x1 = 0.0398 | 1152.79 | 1140.52 | 1128.19 | 1115.81
x1 = 0.1021 | 1167.13 | 1156.18 | 1145.2 | 1134.22
x1 = 0.1433 | 1174.03 | 1163.71 | 1153.39 | 1143.09
x1 = 0.1988 | 1181.04 | 1171.38 | 1161.73 | 1152.11
x1 = 0.2444 | 1185.56 | 1176.34 | 1167.13 | 1157.97
x1 = 0.2998 | 1189.98 | 1181.18 | 1172.41 | 1163.68
x1 = 0.3979 | 1195.81 | 1187.57 | 1179.37 | 1171.23
x1 = 0.4786 | 1199.41 | 1191.53 | 1183.69 | 1175.91
x1 = 0.5652 | 1202.31 | 1194.73 | 1187.19 | 1179.71
x1 = 0.7127 | 1206.24 | 1199.08 | 1191.95 | 1184.88
x1 = 0.8212 | 1208.19 | 1201.28 | 1194.38 | 1187.53
x1 = 0.8546 | 1208.81 | 1201.97 | 1195.14 | 1188.36
x1 = 1 | 1211.16 | 1204.45 | 1197.88 | 1191.35

[2]
Settings | excess molar enthalpy [kcal/mol]
x1 = 0.0804 | -0.038
x1 = 0.1617 | -0.0681
x1 = 0.2832 | -0.0946
x1 = 0.394 | -0.111
x1 = 0.4351 | -0.108
x1 = 0.5566 | -0.0999
x1 = 0.6675 | -0.0884
x1 = 0.7671 | -0.0652
x1 = 0.8761 | -0.0311

CCO [ethanol] + CCCCn1cc[n+](C)c1.F[B-](F)(F)F
[1], x2 = 0
Settings | mass density [kg/m3]
293.15 K | 789.38
303.15 K | 780.78
313.15 K | 772.04
323.15 K | 763.14
